In ChEMBL document CHEMBL5665443, “Enzyme Inhibitor Single Concentration assay results for EUbOPEN Chemogenomics Library” (2024):

What was measured:
[1] = target: N-glycosylase/DNA lyase (Homo sapiens) (UniProt O15527); conditions: Hit No;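 note: OGG1 cleavage of a quenched duplex DNA oligonucleotide, coupled to APE1 for strand incision, read as fluorescence at 594 nm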
Description: Inhibition of OGG1 by quantifying inhibition of OGG1-mediated cleavage and dissociation of quenched duplex DNA oligonucleotides, measured as fluorescence at 594 nm. To generate a functional strand incision and increase turn-over this assay is coupled to APE1.

[2] = target: T1, Endonuclease 8-like 2 (Homo sapiens) (UniProt Q969S2);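 note: fluorescence at 594 nm reports NEIL2 cutting and release of a quenched double-stranded DNA oligo substrate, reduced signal read as inhibition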
T1 sequence (whole entry): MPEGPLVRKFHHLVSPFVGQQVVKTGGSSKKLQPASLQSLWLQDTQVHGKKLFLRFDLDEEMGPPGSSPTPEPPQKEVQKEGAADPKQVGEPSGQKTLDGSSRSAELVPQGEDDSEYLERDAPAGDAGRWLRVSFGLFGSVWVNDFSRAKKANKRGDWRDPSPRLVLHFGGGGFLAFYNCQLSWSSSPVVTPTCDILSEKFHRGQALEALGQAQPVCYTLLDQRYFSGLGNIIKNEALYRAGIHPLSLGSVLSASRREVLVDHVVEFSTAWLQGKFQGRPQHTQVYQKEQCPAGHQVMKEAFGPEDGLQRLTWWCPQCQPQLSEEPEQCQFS
Description: Inhibition of NEIL2 by quantifying inhibition of NEIL2-mediated cleavage and dissociation of quenched duplex DNA oligonucleotides, measured as fluorescence at 594 nm.

[3] = target: Endonuclease 8-like 1 (Homo sapiens) (UniProt Q96FI4); conditions: Hit No;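 note: fluorescence at 594 nm from quenched duplex DNA oligonucleotides released by NEIL1 cleavage and strand separation, reported as reduction of this enzyme activity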
Description: Inhibition of NEIL1 by quantifying inhibition of NEIL1-mediated cleavage and dissociation of quenched duplex DNA oligonucleotides, measured as fluorescence at 594 nm.

[4] = target: T2, Single-strand selective monofunctional uracil DNA glycosylase (Homo sapiens) (UniProt Q53HV7); conditions: Hit No;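 note: enzymatic SMUG1 assay coupled with APE1, reading fluorescence at 594 nm released when a quenched double-stranded DNA oligonucleotide substrate is cleaved and separated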
T2 sequence (whole entry): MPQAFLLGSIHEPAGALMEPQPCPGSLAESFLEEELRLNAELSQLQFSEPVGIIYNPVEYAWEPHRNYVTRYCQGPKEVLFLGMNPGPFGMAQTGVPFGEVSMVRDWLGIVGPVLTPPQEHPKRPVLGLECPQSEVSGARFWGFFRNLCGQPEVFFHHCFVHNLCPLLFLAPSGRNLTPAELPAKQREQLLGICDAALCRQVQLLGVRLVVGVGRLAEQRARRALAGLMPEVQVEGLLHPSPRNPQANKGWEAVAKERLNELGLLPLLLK
Description: Inhibition of SMUG1 by quantifying inhibition of SMUG1-mediated cleavage and dissociation of quenched duplex DNA oligonucleotides, measured as fluorescence at 594 nm. To generate a functional strand incision and increase turn-over this assay is coupled to APE1.

[5] = target: G/T mismatch-specific thymine DNA glycosylase (Homo sapiens) (UniProt Q13569); conditions: Hit No;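 note: human TDG cleavage of quenched duplex DNA oligonucleotides coupled to APE1, strand release read as fluorescence at 594 nm, inhibition of TDG activity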
Description: Inhibition of TDG by quantifying inhibition of TDG-mediated cleavage and dissociation of quenched duplex DNA oligonucleotides, measured as fluorescence at 594 nm. To generate a functional strand incision and increase turn-over this assay is coupled to APE1.

[6] = target: T3, Adenine DNA glycosylase (Homo sapiens) (UniProt Q9UIF7); conditions: Hit No;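 note: human MUTYH activity read as 594 nm fluorescence from cleavage and release of a quenched DNA duplex, coupled with APE1 for strand incision, lower signal meaning inhibition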
T3 sequence (whole entry): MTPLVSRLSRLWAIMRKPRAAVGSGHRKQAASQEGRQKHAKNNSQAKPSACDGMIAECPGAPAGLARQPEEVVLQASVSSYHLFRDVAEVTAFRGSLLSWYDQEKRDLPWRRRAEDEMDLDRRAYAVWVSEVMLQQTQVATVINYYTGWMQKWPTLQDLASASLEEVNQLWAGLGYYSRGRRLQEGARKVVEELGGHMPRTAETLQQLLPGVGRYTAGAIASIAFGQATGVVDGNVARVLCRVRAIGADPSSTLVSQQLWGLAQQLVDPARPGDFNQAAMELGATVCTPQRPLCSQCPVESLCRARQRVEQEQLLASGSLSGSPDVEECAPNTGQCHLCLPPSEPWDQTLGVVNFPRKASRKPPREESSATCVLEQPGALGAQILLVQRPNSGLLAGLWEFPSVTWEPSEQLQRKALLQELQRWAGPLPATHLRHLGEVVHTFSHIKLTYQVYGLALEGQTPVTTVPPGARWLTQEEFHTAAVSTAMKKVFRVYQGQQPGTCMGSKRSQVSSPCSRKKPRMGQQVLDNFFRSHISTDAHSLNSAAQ
Description: Inhibition of MUTYH by quantifying inhibition of MUTYH-mediated cleavage and dissociation of quenched duplex DNA oligonucleotides, measured as fluorescence at 594 nm. To generate a functional strand incision and increase turn-over this assay is coupled to APE1.

[7] = target: Uracil-DNA glycosylase (Homo sapiens) (UniProt P13051); conditions: Hit No;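 note: UNG excision on a quenched double-stranded DNA oligo probe, with APE1 added for strand incision and turnover, read as fluorescence at 594 nm as strands separate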
Description: Inhibition of UNG by quantifying inhibition of UNG-mediated cleavage and dissociation of quenched duplex DNA oligonucleotides, measured as fluorescence at 594 nm. To generate a functional strand incision and increase turn-over this assay is coupled to APE1.

[8] = target: Methyl-CpG-binding domain protein 4 (Homo sapiens) (UniProt O95243); conditions: Hit No;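 note: MBD4 activity read as fluorescence at 594 nm from cleavage and release of a quenched duplex DNA oligonucleotide, with APE1 coupled to incise the strand and raise turnover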
Description: Inhibition of MBD4 by quantifying inhibition of MBD4-mediated cleavage and dissociation of quenched duplex DNA oligonucleotides, measured as fluorescence at 594 nm. To generate a functional strand incision and increase turn-over this assay is coupled to APE1.

[9] = Compound Concentration 1.0 uM, Hit No
[10] = Compound Concentration 10.0 uM, Hit No

Methyl-CpG-binding domain protein 4 (Homo sapiens), sequence (O95243 whole entry, the tested form may be a part): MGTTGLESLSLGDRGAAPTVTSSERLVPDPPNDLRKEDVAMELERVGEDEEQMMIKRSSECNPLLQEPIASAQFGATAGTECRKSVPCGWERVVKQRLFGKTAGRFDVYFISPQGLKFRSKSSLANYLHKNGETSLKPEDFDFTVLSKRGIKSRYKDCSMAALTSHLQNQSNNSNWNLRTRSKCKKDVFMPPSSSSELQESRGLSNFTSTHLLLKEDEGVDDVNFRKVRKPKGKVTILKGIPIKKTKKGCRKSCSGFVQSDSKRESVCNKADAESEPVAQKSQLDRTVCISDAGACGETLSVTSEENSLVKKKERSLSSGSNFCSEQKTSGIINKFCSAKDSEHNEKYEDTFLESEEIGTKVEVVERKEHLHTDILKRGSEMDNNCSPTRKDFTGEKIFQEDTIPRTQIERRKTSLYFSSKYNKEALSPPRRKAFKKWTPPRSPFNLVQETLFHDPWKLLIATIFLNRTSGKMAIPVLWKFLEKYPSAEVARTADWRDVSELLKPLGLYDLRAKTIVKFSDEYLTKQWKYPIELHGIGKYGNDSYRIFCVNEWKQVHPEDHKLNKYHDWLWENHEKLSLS
G/T mismatch-specific thymine DNA glycosylase (Homo sapiens), sequence (Q13569 whole entry): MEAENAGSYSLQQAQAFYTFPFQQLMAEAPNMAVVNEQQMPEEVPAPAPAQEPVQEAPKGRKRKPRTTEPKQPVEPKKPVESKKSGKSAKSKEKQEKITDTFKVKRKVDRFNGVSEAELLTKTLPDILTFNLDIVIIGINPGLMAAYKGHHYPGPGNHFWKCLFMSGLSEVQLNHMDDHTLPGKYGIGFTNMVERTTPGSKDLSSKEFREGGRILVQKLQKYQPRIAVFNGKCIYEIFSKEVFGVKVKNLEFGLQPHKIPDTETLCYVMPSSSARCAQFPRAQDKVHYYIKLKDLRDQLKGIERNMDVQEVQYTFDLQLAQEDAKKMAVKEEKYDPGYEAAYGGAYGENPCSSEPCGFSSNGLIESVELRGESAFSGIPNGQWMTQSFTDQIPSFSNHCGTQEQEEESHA
N-glycosylase/DNA lyase (Homo sapiens), sequence (O15527 whole entry): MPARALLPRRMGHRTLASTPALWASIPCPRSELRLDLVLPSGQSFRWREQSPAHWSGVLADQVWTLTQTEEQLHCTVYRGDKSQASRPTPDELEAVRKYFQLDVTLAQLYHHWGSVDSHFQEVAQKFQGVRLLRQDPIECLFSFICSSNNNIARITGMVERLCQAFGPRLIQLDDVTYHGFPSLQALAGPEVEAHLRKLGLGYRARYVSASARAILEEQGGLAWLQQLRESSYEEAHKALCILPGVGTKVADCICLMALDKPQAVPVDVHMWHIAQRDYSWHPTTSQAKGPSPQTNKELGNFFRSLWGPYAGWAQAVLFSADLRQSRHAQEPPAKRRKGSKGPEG
Endonuclease 8-like 1 (Homo sapiens), sequence (Q96FI4 whole entry): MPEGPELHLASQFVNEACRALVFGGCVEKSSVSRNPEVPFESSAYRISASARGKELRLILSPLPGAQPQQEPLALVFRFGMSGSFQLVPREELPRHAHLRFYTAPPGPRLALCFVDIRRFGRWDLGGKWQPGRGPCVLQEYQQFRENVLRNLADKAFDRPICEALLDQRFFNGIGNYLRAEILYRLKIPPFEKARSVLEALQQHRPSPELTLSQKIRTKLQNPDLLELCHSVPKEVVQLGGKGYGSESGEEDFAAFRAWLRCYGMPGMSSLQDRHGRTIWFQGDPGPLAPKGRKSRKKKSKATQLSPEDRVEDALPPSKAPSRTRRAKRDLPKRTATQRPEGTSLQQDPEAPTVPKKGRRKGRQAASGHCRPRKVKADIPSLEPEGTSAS
Uracil-DNA glycosylase (Homo sapiens), sequence (P13051 whole entry, the tested form may be a part): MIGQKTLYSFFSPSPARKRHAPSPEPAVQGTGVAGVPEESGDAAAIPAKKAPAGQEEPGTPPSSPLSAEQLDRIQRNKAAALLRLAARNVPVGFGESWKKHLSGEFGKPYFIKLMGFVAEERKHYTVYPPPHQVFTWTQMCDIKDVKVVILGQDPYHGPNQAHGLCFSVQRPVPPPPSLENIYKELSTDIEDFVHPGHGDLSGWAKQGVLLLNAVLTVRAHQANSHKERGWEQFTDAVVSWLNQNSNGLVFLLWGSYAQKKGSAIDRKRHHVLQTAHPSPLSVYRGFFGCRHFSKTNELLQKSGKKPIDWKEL

| Compound | inhibition ([1]; Compound Concentration 1.0 uM) | inhibition [2, 9] | inhibition ([3]; Compound Concentration 1.0 uM) | inhibition ([4]; Compound Concentration 1.0 uM) | inhibition ([5]; Compound Concentration 1.0 uM) | inhibition ([6]; Compound Concentration 1.0 uM) | inhibition ([7]; Compound Concentration 1.0 uM) | inhibition ([8]; Compound Concentration 1.0 uM) | inhibition ([1]; Compound Concentration 10.0 uM) | inhibition [2, 10] | inhibition ([3]; Compound Concentration 10.0 uM) | inhibition ([4]; Compound Concentration 10.0 uM) | inhibition ([5]; Compound Concentration 10.0 uM) | inhibition ([6]; Compound Concentration 10.0 uM) | inhibition ([7]; Compound Concentration 10.0 uM) | inhibition ([8]; Compound Concentration 10.0 uM) | inhibition ([2]; Compound Concentration 10.0 uM, Hit Yes) |
| --- | --- | --- | --- | --- | --- | --- | --- | --- | --- | --- | --- | --- | --- | --- | --- | --- | --- |
| CCOC(=O)c1cc2cc(-c3cc(C(=O)NCc4ccc(C(=O)O)cc4)nn3C)ccc2[nH]1 | 9.53% | 11.2% | -4.68% | 6.69% | 41.7% | -1.36% | -2.54% | 61% |  |  |  |  |  |  |  |  |  |
| O=C(Nc1nc2cccc(-c3ccc(CN4CCS(=O)(=O)CC4)cc3)n2n1)C1CC1 |  |  |  |  |  |  |  |  | 1.15% | -1.92% | -4.22% | 27.3% | 66.4% | 3.59% | 2.98% | -0.894% |  |
| NC1(c2ccc(-c3nc4ccn5c(=O)[nH]nc5c4cc3-c3ccccc3)cc2)CCC1 |  |  |  |  |  |  |  |  | 10.8% | -9.46% | 17.6% | 29.1% | 71.2% | 56.1% | 17.3% | 37.9% |  |
| COc1cc(Nc2ncc3c(n2)-c2ccc(Cl)cc2C(c2c(F)cccc2OC)=NC3)ccc1C(=O)O | 4.44% | -9.46% | -3.03% | 19.5% | 47.7% | -7.52% | -1.28% | 19.9% |  |  |  |  |  |  |  |  |  |
| CN1CCN(c2cnc3c(C4CCN(C(=O)c5ccc(OC(F)(F)F)cc5N)CC4)ncnc3c2)CC1 |  |  |  |  |  |  |  |  | -1.54% | -8.19% | -2.58% | 11.7% | 43.6% | 2.58% | 5.02% | 22.6% |  |
| Cc1cc(-c2ccnc(Nc3cnn(C)c3)n2)ccc1CNC(=O)N1CC(OC(C)C)C1 |  |  |  |  |  |  |  |  | 9.56% | -6.23% | -3.03% | 28.1% | 44.6% | 22.5% | 4.16% | 12.6% |  |
| COc1cc(-c2cn([C@H]3CCc4c(F)cccc4N(CC(F)(F)F)C3=O)nn2)ccc1-n1cnc(C)c1 |  |  |  |  |  |  |  |  | 6.38% | 11.2% | -9.83% | 19.7% | 47.4% | 0.879% | 4.8% | 40% |  |
| N[C@@H]1CCCN(c2c(/C=C3\SC(=O)NC3=O)cccc2-c2ccccc2)C1 | 16.9% | 1.04% | -5.54% | 28.4% | 64.1% | 3.22% | 7.16% | 5.7% |  |  |  |  |  |  |  |  |  |
| Nc1nc(NCc2ccccc2)nc(-c2ccccc2CO)n1 |  |  |  |  |  |  |  |  | 4.21% | 5.12% | -7.11% | -2.01% | 52% | -3% | 2.12% | 61.2% |  |
| Cc1nc(C#Cc2cccnc2)cs1 |  |  |  |  |  |  |  |  | -7.91% | -1.88% | 1.49% | -8.43% | 4.62% | 5.76% | -6.91% | -0.814% |  |
| CNCc1ccccc1-c1csc([C@@H](C)Nc2nc(C)nc3cc(OC)c(OC)cc23)c1 |  |  |  |  |  |  |  |  | 16.5% |  | -5.89% | 5.31% | 66.2% | 19.2% | 14.2% | 8.88% | 38% |
| CC1CCN(c2ccnc(NCc3cn(C)cn3)n2)CC1 |  |  |  |  |  |  |  |  | 19.9% | 3.08% | 1.98% | 15.3% | 50.4% | 19.8% | 5.91% | 67.6% |  |
| O=C(c1cc2c(cc1F)OC(c1ccc(F)cc1)(c1ccc(Cl)cc1Cl)O2)N1CCOCC1 (stereo not drawn) |  |  |  |  |  |  |  |  | -5.3% | 8.5% | 3.95% | 5.83% | 17.8% | 25.5% | -5.46% | -9.38% |  |
| Nc1cnc(N2CCc3cc(S(=O)(=O)Nc4c(F)cc(Cl)cc4F)cc(N4CCCC4=O)c32)nc1 | 0.18% | -0.999% | -8.47% | 6.61% | 41.3% | -0.378% | -1.59% | 55.9% |  |  |  |  |  |  |  |  |  |
| N#CN1CC[C@@H](C(=O)Nc2nc3c(s2)CN(C(=O)CN=[N+]=[N-])CC3)C1 |  |  |  |  |  |  |  |  | 3.62% | -7.63% | 6.22% | 2.3% | 50.9% | -2.56% | 4.95% | 54.3% |  |
| CCC(C)N(C)C(=O)c1cc2ccccc2c(-c2ccccc2Cl)n1 (stereo not drawn) |  |  |  |  |  |  |  |  | 15.1% | 3.59% | -9.53% | 22.8% | 99.2% | 1.15% | 7.72% | 67% |  |
| CC(=O)Nc1nc(C)c(S(=O)(=O)Nc2ccc(C(O)(C(F)(F)F)C(F)(F)F)cc2)s1 |  |  |  |  |  |  |  |  | 9.77% | 2.83% | 1.83% | 23% | 98.2% | 13.4% | 5.29% | 60.1% |  |
| CCCOc1ccc([C@@H]2[C@@H](C(=O)O)[C@H](c3ccc4c(c3)OCO4)CN2CC(=O)Nc2c(CC)cccc2CC)cc1 | 12% | 9.71% | -3.17% | 18.8% | 57.1% | -8.3% | 4.27% | 66.2% |  |  |  |  |  |  |  |  |  |
| O=C(Cc1ccccc1)Nc1nnc(N2CC[C@@H]3[C@H]2CN3c2cccnn2)s1 | 3.62% | -8.65% | 0.316% | 9.42% | 43.7% | 7.76% | 9.87% | 66% |  |  |  |  |  |  |  |  |  |
| COc1cc(-c2cncc(-c3ccc(N4CCN(C(C)C)CC4)cc3)c2C)cc(F)c1C(N)=O |  |  |  |  |  |  |  |  | 10.3% | 1.85% | 5.68% | 31.3% | 38.5% | -6.43% | 5.22% | 0.764% |  |
| Cn1cc(Nc2nccc(N3CC4CCC(C3)N4C(=O)[C@@H]3CC3(F)F)n2)cn1 |  |  |  |  |  |  |  |  | -0.945% | -8.92% | 0.138% | 8.21% | 35.9% | -8.86% | -0.791% | -6.61% |  |
| Cc1nc(Cc2cccc(C(F)(F)F)c2)sc1-c1ccc(C(N)=O)nc1 | 0.0328% | -3.29% | -5.59% | 6% | 96.5% | -2.4% | -0.747% | 52% |  |  |  |  |  |  |  |  |  |
| O=C(N[C@H]1CCCCC/C=C\C2C[C@@]2(C(=O)O)NC(=O)[C@@H]2C[C@@H](Oc3ccncc3)CN2C1=O)OC1CCCC1 (stereo partly drawn) |  |  |  |  |  |  |  |  | 25.2% | -0.999% | 2.74% | 20% | 61.5% | 1.97% | 4.34% | 61.8% |  |
| O=C(Nc1ccc(C(O)(C(F)(F)F)C(F)(F)F)cc1)c1ccc(C(F)(F)F)cc1 |  |  |  |  |  |  |  |  | 30.3% | -7.89% | -5.59% | 23.5% | 98% | 3.77% | 11.1% | 54.8% |  |
| CC(C)c1c(CN(C)C(C)Cc2ccccc2)n(C)n(-c2ccccc2)c1=O (stereo not drawn) |  |  |  |  |  |  |  |  | 21.4% | -4.57% | 0.921% | 23.9% | 100% | 11% | 1.7% | 64.9% |  |
| CN(C)[C@H]1CCN(c2cc(-c3ccccc3)nc3ccnn23)C1 |  |  |  |  |  |  |  |  | 10.6% | 9.71% | 6.98% | 13.5% | 49% | 15.6% | 9.72% | 77.8% |  |
